Results on two compounds are retold here after publication PMC4164625 (PLoS ONE, 2014).

Molecules are shown by their SMILES.

The subject of one assay is SIRT5. The note with it: cited from earlier work.
Another assay has as its system mouse Sir2. The note with it: cited from earlier work.
For a further assay, the system named is SIRT1. The note with it: cited from earlier work.
A further assay deals with yeast Sir2. The note with it: cited from earlier work.
The target in assay [1] is T1, recombinant human SIRT1 (Homo sapiens, UniProt Q96EB6).
T1 sequence (Q96EB6 1-747): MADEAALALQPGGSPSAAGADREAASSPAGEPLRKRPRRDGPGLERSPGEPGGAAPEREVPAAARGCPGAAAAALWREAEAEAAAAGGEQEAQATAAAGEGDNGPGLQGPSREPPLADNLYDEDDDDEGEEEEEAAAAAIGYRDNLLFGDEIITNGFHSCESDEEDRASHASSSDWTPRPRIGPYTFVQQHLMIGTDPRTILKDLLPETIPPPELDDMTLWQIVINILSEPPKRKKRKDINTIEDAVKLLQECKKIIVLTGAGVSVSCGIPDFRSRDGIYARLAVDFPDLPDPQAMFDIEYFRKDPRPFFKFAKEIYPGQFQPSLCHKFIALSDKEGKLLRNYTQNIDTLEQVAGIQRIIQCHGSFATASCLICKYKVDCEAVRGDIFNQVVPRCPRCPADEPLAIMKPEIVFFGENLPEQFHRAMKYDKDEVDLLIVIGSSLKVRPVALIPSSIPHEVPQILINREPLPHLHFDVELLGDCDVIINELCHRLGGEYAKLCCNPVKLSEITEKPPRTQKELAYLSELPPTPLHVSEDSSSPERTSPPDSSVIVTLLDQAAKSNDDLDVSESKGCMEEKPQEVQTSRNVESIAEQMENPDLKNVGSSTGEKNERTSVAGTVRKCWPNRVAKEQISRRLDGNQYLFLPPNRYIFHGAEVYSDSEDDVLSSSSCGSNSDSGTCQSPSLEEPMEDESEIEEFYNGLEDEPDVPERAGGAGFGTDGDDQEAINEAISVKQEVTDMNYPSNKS
Kind of assay: SIRT1 initial-rate inhibition kinetics against NAD+, global nonlinear fitting (Eq. 1). The format is biochemical. Also noted: purchased Enzo Life Sciences AK 555. The source says: We utilized a novel deacetylation activity assay that generates a fluorescent signal upon deacetylation of a peptide substrate.
Data are globally nonlinear fitted to base exchange inhibition model (Eq. 1) and shown as a double-reciprocal plot of 1/v versus 1/[NAD^+]. In (C) and (D), the intersection points of the double reciprocal plots are enlarged for SIRT1 and SIRT3, respectively.

A further assay relates to SIRT2. The note with it: cited from earlier work.
Another assay concerns bacterial Sir2. The note with it: cited from earlier work.
The target in assay [2] is T1, recombinant human SIRT1. In words: Fluorometric deacetylation assay, IC50 of NAM and isoNAM for SIRT1.
Description: (§1) The steady state parameters (Km and kcat) and catalytic efficiency (kcat/Km) of deacetylase activity of recombinant human SIRT1 and SIRT3 were determined using a fluorometric assay. […] Unless otherwise indicated, all initial rate measurements were means of three or more replicates, obtained with single incubation times, at which point 5% or less of the substrate initially present had been deacetylated. The raw data were fitted to the Michaelis-Menten equation and defined inhibition models (Eqs. 1 and 2) by using GraphPad Prism (GraphPad Software, Inc, CA) to obtain the kinetic constants.
(§2) The data were fitted to equation (8) by using Prism to calculate the IC 50 values: [drawing 55] (8) where v0 is the initial rate of the uninhibited reaction and vi is the initial rate of the reaction at concentration I of the inhibitor.
The target of assay [3] is T2, recombinant human SIRT3 (Homo sapiens, UniProt Q9NTG7).
T2 sequence (Q9NTG7 1-399): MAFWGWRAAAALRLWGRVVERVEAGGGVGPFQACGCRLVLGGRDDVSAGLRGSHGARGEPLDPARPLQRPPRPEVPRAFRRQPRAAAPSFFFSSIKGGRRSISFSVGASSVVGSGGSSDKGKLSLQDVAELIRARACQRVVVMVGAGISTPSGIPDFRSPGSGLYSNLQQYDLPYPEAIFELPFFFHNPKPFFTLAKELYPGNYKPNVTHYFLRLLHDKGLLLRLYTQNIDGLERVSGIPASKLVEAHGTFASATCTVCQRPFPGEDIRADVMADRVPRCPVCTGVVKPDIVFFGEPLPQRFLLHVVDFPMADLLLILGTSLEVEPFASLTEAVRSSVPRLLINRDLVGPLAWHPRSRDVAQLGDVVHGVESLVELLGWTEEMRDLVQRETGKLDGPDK
In words: Fluorometric deacetylation assay, IC50 of NAM and isoNAM for SIRT3. The class given is biochemical. Also on record: purchased Creative BioMart. As to conditions: 90 minutes incubation, 1 mM NAD^+ at 37°C (Methods b105: 100 µM NAD^+).
Description: as §1, §2

Assay [4] addresses T2, recombinant human SIRT3. Kind of assay: SIRT3 initial-rate inhibition kinetics against NAD+, global nonlinear fitting (Eq. 1 / Eq. 2).
Description: Here, the in vitro SIRT3 deacetylation activity was measured in the presence of varying amounts of isoNAM. Global nonlinear fitting of the following standard mixed noncompetitive inhibition model to initial rate data was carried out for isoNAM inhibition of SIRT3: [drawing 4] (2) where, [I] denotes the concentration of inhibitor (isoNAM).
Data are globally nonlinear fitted to mixed inhibition model (Eq. 2) and shown as a double-reciprocal plot of 1/v versus 1/[NAD^+].
as §1

By IC50 is commonly meant the concentration that inhibits the measured activity by half. Take `NC(=O)c1cccnc1` [NAM, nicotinamide]: the IC50 with SIRT5 is 1.6 mM; in the assay on mouse Sir2 it was 160 µM; with SIRT1, 50 µM; in the assay with yeast Sir2, 120 µM; in the assay on SIRT2, […]; in the assay with bacterial Sir2, 26 µM. Also, the “Vmax, model parameter estimate” value on recombinant human SIRT1 [1] (global nonlinear fit of initial rates with NAM (Eq. 1)) is listed as 0.863 µM/min. Besides, the “Michaelis constant, model parameter estimate” value on recombinant human SIRT1 [1] (global nonlinear fit of initial rates with NAM (Eq. 1), varying NAD^+, saturating peptide, 37°C) is recorded as 168.2 µM. The α on recombinant human SIRT1 [1] (mixed inhibition model, K3≡αK2 (Eq. 1)) was determined as 0.848.
As a reminder, the Ki is a measure of affinity in units of concentration, obtained from inhibition or displacement. For `NC(=O)c1ccncc1` [isoNAM, isonicotinamide], the IC50 turned out to be 12.2 ± 0.3 mM on recombinant human SIRT1 [2] and 13.8 ± 0.5 mM at recombinant human SIRT3 [3]. In addition, the inhibition constant Ki at recombinant human SIRT3 [4] (K 2(K i), K2 of Eq. 1 for NAM, Ki of Eq. 2 for isoNAM (in brackets), unit inferred, b71 gives isoNAM Ki≈4.6 mM) is 4.62 mM; at recombinant human SIRT3 [4] (Ki, from fitting of Eq. 2, as restated in the Discussion), ~4.6 mM. In addition, the “Inhibition mode with respect to NAD^+” value on recombinant human SIRT3 [4] (double reciprocal plot / value of α) is recorded as “competitive inhibitor”. In addition, the “Vmax, model parameter estimate” value at recombinant human SIRT3 [4] (global nonlinear fit of initial rates with the named inhibitor (Eq. 1 for NAM, Eq. 2 for isoNAM)) was 0.167 µM/min. On recombinant human SIRT3 [4] (global nonlinear fit of initial rates with the named inhibitor (Eq. 1 for NAM, Eq. 2 for isoNAM), varying NAD^+, saturating peptide, 37°C), the “Michaelis constant, model parameter estimate” value is given as 1402 µM.
